Converted amounts (≈) assume the structure as drawn.
Test system: Pseudomonas aeruginosa FP 1456
Test: In vitro antibacterial activity, two-fold agar-plate dilution method (MIC)
Assay type: cell-based
Details: incubation at 37° C. for 20 hours; for MIC: FP1456, heart infusion agar, read-out: MIC (minimal inhibitory concentration)
Description: In vitro antibacterial activity was determined by the two-fold agar-plate dilution method as described below. One loopful of an overnight culture of each test strain in Trypticase-soy broth (10^6 viable cells per ml) was streaked on heart infusion agar (HI-agar) containing graded concentrations of representative test compound, and the minimal inhibitory concentration (MIC) was expressed in μg/ml after incubation at 37° C. for 20 hours.

Row | Structure (SMILES) | MIC [µg/mL] | MIC (minimal inhibitory concentration) (heart infusion agar) [µg/mL]
1 | CC(C)(O/N=C(\C(=O)N[C@@H]1C(=O)N2C(C(=O)[O-])=C(C[n+]3ccccc3)CS[C@H]12)c1csc(N)n1)C(=O)O [Ceftazidime, reference compound] | 32 (≈ 58.5 µM) | –
2 | Cn1c(CCN)cc[n+]1CC1=C(C(=O)O)N2C(=O)[C@@H](NC(=O)/C(=N\OC(C)(C)C(=O)O)c3nsc(N)n3)[C@H]2SC1.O=S(=O)([O-])O [Compound (a), 3-[3-(2-aminoethyl)-2-methyl-1-pyrazolio]methyl-7β-[(Z)-2-(5-amino-1,2,4-thiadiazol-3-yl)-2-(1-carboxy-1-methylethoxyimino)acetamido]-3-cephem-4-carboxylic acid hydrogen sulfate] | 1 | –
3 | Cn1c(CCNC(=N)N)cc[n+]1CC1=C(C(=O)[O-])N2C(=O)[C@@H](NC(=O)/C(=N\OC(C)(C)C(=O)O)c3nsc(N)n3)[C@H]2SC1 [Compound (b), 3-{[3-(2-{[amino(imino)methyl]amino}ethyl)-2-methyl-1-pyrazolio]methyl}-7β-({(2Z)-2-(5-amino-1,2,4-thiadiazol-3-yl)-2-[(1-carboxy-1-methylethoxy)imino]ethanoyl}-amino)-3-cephem-4-carboxylate] | 2 (≈ 3.15 µM) | –
4 | Cn1cc(CCN)c[n+]1CC1=C(C(=O)[O-])N2C(=O)[C@@H](NC(=O)/C(=N\OC(C)(C)C(=O)O)c3nsc(N)n3)[C@H]2SC1 [Compound (c), 3-{[4-(2-aminoethyl)-2-methyl-1-pyrazolio]methyl}-7β-({(2Z)-2-(5-amino-1,2,4-thiadiazol-3-yl)-2-[(l-carboxy-1-methylethoxy)imino]ethanoyl}amino)-3-cephem-4-carboxylate] | – | 2 (≈ 3.37 µM)
